# Measurements published in ChEMBL document CHEMBL2440076, “New triarylpyrazoles as broad-spectrum anticancer agents: design, synthesis, and biological evaluation” (Eur J Med Chem, 2013).
# What was measured:
# MOLT-4 [1] = experiment: Growth inhibition of human MOLT4 cells assessed as cell growth at 10 uM after 48 hrs by sulforhodamine B assay; format: functional; settings: MOLT-4, 48 h, read-out: Activity
# IGROV-1 = experiment: Growth inhibition of human IGROV1 cells assessed as cell growth at 10 uM after 48 hrs by sulforhodamine B assay; format: functional; settings: IGROV-1, 48 h, read-out: Activity
# MDA-MB-435 = experiment: Growth inhibition of human MDA-MB-435 cells assessed as cell growth at 10 uM after 48 hrs by sulforhodamine B assay; format: functional; settings: MDA-MB-435, 48 h, read-out: Activity
# DU-145 = experiment: Growth inhibition of human DU145 cells after 48 hrs by sulforhodamine B assay; format: functional; settings: DU-145, 48 h
# RXF 393 = experiment: Growth inhibition of human RXF393 cells after 48 hrs by sulforhodamine B assay; format: functional; settings: RXF 393, 48 h
# SF-268 = experiment: Growth inhibition of human SF268 cells assessed as cell growth at 10 uM after 48 hrs by sulforhodamine B assay; format: functional; settings: SF-268, 48 h, read-out: Activity
# NCI-H322M = experiment: Growth inhibition of human NCI-H322M cells assessed as cell growth at 10 uM after 48 hrs by sulforhodamine B assay; format: functional; settings: read-out: Activity
# HCT-15 [2] = experiment: Growth inhibition of human HCT15 cells after 48 hrs by sulforhodamine B assay; format: functional; settings: HCT-15, 48 h
# HCT-15 [3] = experiment: Growth inhibition of human HCT15 cells assessed as cell growth at 10 uM after 48 hrs by sulforhodamine B assay; format: functional; settings: HCT-15, 48 h, read-out: Activity
# HCT-116 = experiment: Growth inhibition of human HCT116 cells after 48 hrs by sulforhodamine B assay; format: functional; settings: HCT-116, 48 h
# OVCAR-4 = experiment: Growth inhibition of human OVCAR4 cells after 48 hrs by sulforhodamine B assay; format: functional; settings: OVCAR-4, 48 h
# MDA-MB-468 = experiment: Growth inhibition of human MDA-MB-468 cells assessed as cell growth at 10 uM after 48 hrs by sulforhodamine B assay; format: functional; settings: MDA-MB-468, 48 h, read-out: Activity
# SK-MEL-5 [4] = experiment: Growth inhibition of human SK-MEL-5 cells after 48 hrs by sulforhodamine B assay; format: functional; settings: SK-MEL-5, 48 h
# T47D = experiment: Growth inhibition of human T47D cells assessed as cell growth at 10 uM after 48 hrs by sulforhodamine B assay; format: functional; settings: read-out: Activity
# NCI-H460 = experiment: Growth inhibition of human NCI-H460 cells assessed as cell growth at 10 uM after 48 hrs by sulforhodamine B assay; format: functional; settings: NCI-H460, 48 h, read-out: Activity
# SK-MEL-5 [5] = experiment: Growth inhibition of human SK-MEL-5 cells assessed as cell growth at 10 uM after 48 hrs by sulforhodamine B assay; format: functional; settings: SK-MEL-5, 48 h, read-out: Activity
# NCI-H23 = experiment: Growth inhibition of human NCI-H23 cells after 48 hrs by sulforhodamine B assay; format: functional; settings: NCI-H23, 48 h
# OVCAR-3 = experiment: Growth inhibition of human OVCAR3 cells assessed as cell growth at 10 uM after 48 hrs by sulforhodamine B assay; format: functional; settings: OVCAR-3, 48 h, read-out: Activity
# TK-10 = experiment: Growth inhibition of human TK10 cells assessed as cell growth at 10 uM after 48 hrs by sulforhodamine B assay; format: functional; settings: TK-10, 48 h, read-out: Activity
# KM12 = experiment: Growth inhibition of human KM12 cells after 48 hrs by sulforhodamine B assay; format: functional, cell-based; settings: KM12, 48 h
# OVCAR-5 = experiment: Growth inhibition of human OVCAR5 cells after 48 hrs by sulforhodamine B assay; format: functional; settings: OVCAR-5, 48 h
# SF-539 = experiment: Growth inhibition of human SF539 cells assessed as cell growth at 10 uM after 48 hrs by sulforhodamine B assay; format: functional; settings: SF-539, 48 h, read-out: Activity
# M14 = experiment: Growth inhibition of human M14 cells after 48 hrs by sulforhodamine B assay; format: functional; settings: M14, 48 h
# SNB-19 = experiment: Growth inhibition of human SNB19 cells after 48 hrs by sulforhodamine B assay; format: functional; settings: SNB-19, 48 h
# UO-31 = experiment: Growth inhibition of human UO31 cells after 48 hrs by sulforhodamine B assay; format: functional; settings: UO-31, 48 h
# CCRF-CEM = experiment: Growth inhibition of human CCRF-CEM cells assessed as cell growth at 10 uM after 48 hrs by sulforhodamine B assay; format: functional; settings: read-out: Activity
# RPMI-8226 = experiment: Growth inhibition of human RPMI8226 cells assessed as cell growth at 10 uM after 48 hrs by sulforhodamine B assay; format: functional; settings: RPMI-8226, 48 h, read-out: Activity
# SR = experiment: Growth inhibition of human SR cells after 48 hrs by sulforhodamine B assay; format: functional
# PC-3 = experiment: Growth inhibition of human PC3 cells after 48 hrs by sulforhodamine B assay; format: functional, cell-based; settings: PC-3, 48 h
# MOLT-4 [6] = experiment: Growth inhibition of human MOLT4 cells after 48 hrs by sulforhodamine B assay; format: functional; settings: MOLT-4, 48 h
# SN12C = experiment: Growth inhibition of human SN12C cells after 48 hrs by sulforhodamine B assay; format: functional
# UACC-257 = experiment: Growth inhibition of human UACC257 cells after 48 hrs by sulforhodamine B assay; format: functional; settings: UACC-257, 48 h
# LOX IMVI = experiment: Growth inhibition of human LOXIMVI cells assessed as cell growth at 10 uM after 48 hrs by sulforhodamine B assay; format: functional; settings: read-out: Activity
# [7] = Growth inhibition of human Hs 578T cells assessed as cell growth at 10 uM after 48 hrs by sulforhodamine B assay; format: functional; settings: read-out: Activity
# [8] = read-out: LC50 (the source's name)
smiles,measurement,setting,value
COc1cc(-c2nn(-c3cccc(NC(=O)Nc4ccc(Cl)c(Cl)c4)c3)cc2-c2ccncc2)ccc1Cl,growth at 10 µM,MOLT-4 [1],-11.1%
same,growth at 10 µM,IGROV-1,23.9%
same,growth at 10 µM,MDA-MB-435,-45.8%
same,GI50,DU-145,1520 nM
same,LC50,DU-145,> 50000 nM
same,TGI,DU-145,34200 nM
same,GI50,RXF 393,859 nM
same,LC50 (concentration killing 50% of cells),RXF 393,> 50000 nM
same,TGI,RXF 393,2440 nM
same,growth at 10 µM,SF-268,17.9%
same,growth at 10 µM,NCI-H322M,38.8%
same,GI50,HCT-15 [2],1230 nM
same,LC50,HCT-15 [2],> 50000 nM
same,TGI,HCT-15 [2],> 50000 nM
same,growth at 10 µM,HCT-15 [3],12.7%
same,GI50,HCT-116,1210 nM
same,TGI,HCT-116,> 50000 nM
same,CC50,HCT-116; [8],> 50000 nM
same,GI50,OVCAR-4,1290 nM
same,LC50 (concentration killing 50% of cells),OVCAR-4,> 50000 nM
same,TGI,OVCAR-4,> 50000 nM
same,growth at 10 µM,MDA-MB-468,2.14%
same,GI50,SK-MEL-5 [4],741 nM
same,LC50 (concentration killing 50% of cells),SK-MEL-5 [4],3020 nM
same,TGI,SK-MEL-5 [4],1490 nM
same,growth at 10 µM,T47D,2.98%
same,growth at 10 µM,NCI-H460,2.32%
same,growth at 10 µM,SK-MEL-5 [5],-80%
same,GI50,NCI-H23,1410 nM
same,LC50,NCI-H23,> 50000 nM
same,TGI,NCI-H23,5190 nM
same,growth at 10 µM,OVCAR-3,-10%
same,growth at 10 µM,TK-10,10.9%
same,GI50,KM12,811 nM
same,IC50,KM12,810 nM
same,TGI,KM12,2770 nM
same,CC50,KM12; [8],49500 nM
same,GI50,OVCAR-5,2130 nM
same,LC50 (concentration killing 50% of cells),OVCAR-5,> 50000 nM
same,TGI,OVCAR-5,> 50000 nM
same,growth at 10 µM,SF-539,12.3%
same,GI50,M14,911 nM
same,LC50 (concentration killing 50% of cells),M14,41200 nM
same,TGI,M14,2690 nM
same,GI50,SNB-19,1720 nM
same,LC50 (concentration killing 50% of cells),SNB-19,> 50000 nM
same,TGI,SNB-19,> 50000 nM
same,GI50,UO-31,845 nM
same,TGI,UO-31,4980 nM
same,CC50,UO-31; [8],> 50000 nM
same,growth at 10 µM,CCRF-CEM,-7.9%
same,growth at 10 µM,RPMI-8226,-11.6%
same,GI50,SR,932 nM
same,TGI,SR,2800 nM
same,CC50,SR; [8],> 50000 nM
same,GI50,PC-3,554 nM
same,IC50,PC-3,550 nM
same,TGI,PC-3,2830 nM
same,CC50,PC-3; [8],> 50000 nM
same,GI50,MOLT-4 [6],1100 nM
same,TGI,MOLT-4 [6],4480 nM
same,CC50,MOLT-4 [6]; [8],> 50000 nM
same,GI50,SN12C,1470 nM
same,TGI,SN12C,> 50000 nM
same,CC50,SN12C; [8],> 50000 nM
same,GI50,UACC-257,1040 nM
same,TGI,UACC-257,3110 nM
same,CC50,UACC-257; [8],> 50000 nM
same,growth at 10 µM,LOX IMVI,1.38%
same,growth at 10 µM,[7],-6.95%
